Experiment: xn = mol fraction of the nth substance listed

CCOC(=O)CC + ClC(Cl)C(Cl)Cl
viscosity [mPa·s], 101.3 kPa
Conditions | 308.15 K | 318.15 K
x1 = 0.0486 | 1.333 | 1.203
x1 = 0.0999 | 1.261 | 1.128
x1 = 0.2025 | 1.127 | 0.996
x1 = 0.2997 | 1.013 | 0.888
x1 = 0.3983 | 0.922 | 0.794
x1 = 0.5003 | 0.817 | 0.71
x1 = 0.5986 | 0.714 | 0.64
x1 = 0.7023 | 0.617 | 0.576
x1 = 0.801 | 0.583 | 0.523
x1 = 0.9018 | 0.521 | 0.476
x1 = 0.951 | 0.493 | 0.455

CCCCCOC(C)=O + ClC(Cl)Cl
303.15 K, 101.3 kPa
Conditions | viscosity [mPa·s]
x1 = 0.0995 | 0.5918
x1 = 0.2017 | 0.6667
x1 = 0.2998 | 0.725
x1 = 0.3984 | 0.7678
x1 = 0.5049 | 0.7991
x1 = 0.5912 | 0.8048
x1 = 0.7005 | 0.8002
x1 = 0.8153 | 0.7844
x1 = 0.8911 | 0.7722

CCCCCOC(C)=O + ClCCCl
303.15 K, 101.3 kPa
Conditions | viscosity [mPa·s]
x1 = 0.1052 | 0.7366
x1 = 0.196 | 0.7444
x1 = 0.303 | 0.7582
x1 = 0.4004 | 0.7651
x1 = 0.4924 | 0.7693
x1 = 0.5994 | 0.7716
x1 = 0.702 | 0.7686
x1 = 0.805 | 0.762
x1 = 0.8946 | 0.7597

CC1CCCO1 (centres undefined) + Clc1ccccc1
298.15 K, 101 kPa
Conditions | viscosity [mPa·s]
x2 = 0.0188 | 0.47
x2 = 0.0509 | 0.482
x2 = 0.103 | 0.501
x2 = 0.157 | 0.52
x2 = 0.2126 | 0.54
x2 = 0.2712 | 0.56
x2 = 0.3298 | 0.579
x2 = 0.3913 | 0.598
x2 = 0.4548 | 0.617
x2 = 0.5206 | 0.635
x2 = 0.5892 | 0.654
x2 = 0.6601 | 0.671
x2 = 0.7334 | 0.689
x2 = 0.8094 | 0.705
x2 = 0.889 | 0.722
x2 = 0.9713 | 0.737

CCOC(=O)CC + Clc1ccccc1
viscosity [mPa·s], 101.3 kPa
Conditions | 308.15 K | 318.15 K
x1 = 0.0485 | 0.647 | 0.598
x1 = 0.102 | 0.636 | 0.588
x1 = 0.1976 | 0.616 | 0.57
x1 = 0.307 | 0.594 | 0.55
x1 = 0.3981 | 0.576 | 0.534
x1 = 0.4981 | 0.557 | 0.517
x1 = 0.6116 | 0.535 | 0.498
x1 = 0.7034 | 0.519 | 0.483
x1 = 0.7992 | 0.501 | 0.467
x1 = 0.9 | 0.484 | 0.451
x1 = 0.9478 | 0.476 | 0.444

ClCC(Cl)Cl + N#CCc1ccccc1
Conditions | viscosity [mPa·s]
303.15 K, 101 kPa, x2 = 0.3463 | 1.365

C1CNCCN1.C1CNCCN1.C1CNCCN1.O=C(O)CC(O)(CC(=O)O)C(=O)O.O=C(O)CC(O)(CC(=O)O)C(=O)O + O
viscosity [mPa·s], 101.3 kPa
Conditions | 293.15 K | 303.15 K | 313.15 K
x1 = 0.000319 | 1.035 | 0.826 | 0.679
x1 = 0.000781 | 1.073 | 0.857 | 0.708
x1 = 0.000911 | 1.086 | 0.865 | 0.716
x1 = 0.00105 | 1.101 | 0.877 | 0.725
x1 = 0.00119 | 1.115 | 0.888 | 0.733
x1 = 0.00134 | 1.132 | 0.901 | 0.743
x1 = 0.00149 | 1.148 | 0.914 | 0.753
x1 = 0.00166 | 1.166 | 0.928 | 0.763
x1 = 0.00179 | 1.179 | 0.939 | 0.771
x1 = 0.001875 | 1.188 | 0.945 | 0.775
x1 = 0.002838 | 1.303 | 1.034 | 0.834

C=CCC[n+]1ccn(CC)c1.[Br-] + O
viscosity [mPa·s], 101.33 kPa
Conditions | x1 = 0.001149 | x1 = 0.001784 | x1 = 0.003604 | x1 = 0.005391 | x1 = 0.007164 | x1 = 0.008843
293.15 K | 1.038 | 1.055 | 1.095 | 1.132 | 1.168 | 1.206
298.15 K | 0.922 | 0.936 | 0.971 | 1.003 | 1.034 | 1.067
303.15 K | 0.825 | 0.837 | 0.867 | 0.895 | 0.924 | 0.95
308.15 K | 0.743 | 0.754 | 0.781 | 0.806 | 0.831 | 0.854
313.15 K | 0.674 | 0.684 | 0.708 | 0.73 | 0.753 | 0.772

CC(C)CO + O
Conditions | viscosity [mPa·s]
293.15 K, 101.33 kPa, x1 = 0.0049 | 1.124
293.15 K, 101.33 kPa, x1 = 0.01 | 1.222
293.15 K, 101.33 kPa, x1 = 0.015 | 1.332
293.15 K, 101.33 kPa, x1 = 0.021 | 1.453
298 K, 101 kPa, x2 = 0.2 | 3.148
298 K, 101 kPa, x2 = 0.4 | 3.209
299 K, 101 kPa, x2 = 0.1 | 3.13
299 K, 101 kPa, x2 = 0.45 | 3.156
300 K, 101 kPa, x2 = 0.3 | 2.95
303 K, 101 kPa, x1 = 0.01 | 0.931
303 K, 101 kPa, x2 = 0.1 | 2.753
303 K, 101 kPa, x2 = 0.2 | 2.679
303 K, 101 kPa, x2 = 0.3 | 2.676
303 K, 101 kPa, x2 = 0.4 | 2.719
303 K, 101 kPa, x2 = 0.45 | 2.761
303.15 K, 101.33 kPa, x1 = 0.0049 | 0.899
303.15 K, 101.33 kPa, x1 = 0.01 | 0.967
303.15 K, 101.33 kPa, x1 = 0.015 | 1.04
303.15 K, 101.33 kPa, x1 = 0.021 | 1.119
313 K, 101 kPa, x1 = 0.01 | 0.7483
313 K, 101 kPa, x2 = 0.1 | 2.041
313 K, 101 kPa, x2 = 0.2 | 1.985
313 K, 101 kPa, x2 = 0.3 | 1.976
313 K, 101 kPa, x2 = 0.4 | 2.002
313 K, 101 kPa, x2 = 0.45 | 2.025
313.15 K, 101.33 kPa, x1 = 0.0049 | 0.721
313.15 K, 101.33 kPa, x1 = 0.01 | 0.767
313.15 K, 101.33 kPa, x1 = 0.015 | 0.815
323 K, 101 kPa, x1 = 0.01 | 0.6161
323 K, 101 kPa, x2 = 0.1 | 1.55
323 K, 101 kPa, x2 = 0.2 | 1.51
323 K, 101 kPa, x2 = 0.3 | 1.502
323 K, 101 kPa, x2 = 0.4 | 1.517
323 K, 101 kPa, x2 = 0.45 | 1.531
323.15 K, 101.33 kPa, x1 = 0.0049 | 0.604
323.15 K, 101.33 kPa, x1 = 0.01 | 0.642
323.15 K, 101.33 kPa, x1 = 0.015 | 0.675
